Test results reported in article PMC8513901, “Cooperative stabilisation of 14-3-3σ protein–protein interactions via covalent protein modification” (Chemical Science, 2021).

Target: T1, 14-3-3σ (Homo sapiens, UniProt P31947)
T1 construct: gene SFN; with ERα phospho-peptide (588AEGFPApTV595 in the crystal)
T1 sequence (P31947 1-248): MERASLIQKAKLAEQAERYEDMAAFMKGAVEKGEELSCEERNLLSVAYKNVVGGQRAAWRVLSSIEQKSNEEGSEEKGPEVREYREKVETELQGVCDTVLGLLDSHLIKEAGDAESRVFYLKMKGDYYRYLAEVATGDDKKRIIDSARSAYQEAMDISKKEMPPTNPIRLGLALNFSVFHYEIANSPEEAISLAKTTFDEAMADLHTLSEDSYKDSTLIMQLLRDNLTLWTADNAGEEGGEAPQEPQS
Experiment: crystal structure with ERα phospho-peptide and […]; FP dose-response and ITC stabilisation
Assay type: binding

Q: Which EC50 does the source give for `C=CC(C)(C)OC[C@H]1O[C@H](O[C@@H]2C3=C([C@H](C)COC(C)=O)C[C@H](O)[C@]3(C)/C=C3/[C@@H](COC)CC[C@H]3[C@@H](C)[C@H]2O)[C@H](O)[C@@H](OC(C)=O)[C@@H]1O` [compound 1, fusicoccin A] here?
A: 880 nM
